# Assay results: EP2133323B1, “The production and use of 3,5-dicaffeoyl-4-malonylquinic acid” (I.R.B. Istituto Di Ricerche Biotecnologiche S.r.l., priority 2008, dated 2009)
# What was measured:
# [1] = system: mouse B16F1 melanoma cells; assay: Inhibition of MSH-stimulated melanin production (depigmenting activity); type: cell-based; conditions: 1 mg/mL, 100 nM MSH, 24 hours; for % inhibition vs AK: relative to kojic acid
# Procedure: The bleaching activity of the compound obtained by cell culture of Centella asiatica has been determined by evaluating the inhibition of melanin production, stimulated by the addition of MSH (melanocyte stimulating hormone) in mouse B16F1 melanoma cells. The test has been prepared by seeding mouse B16F1 melanoma cells in DMEM culture medium + 10% FBS in 25 cm^2 flasks. On reaching 80% confluency, the culture medium has been replaced with conditioned medium (containing 100 nM MSH and the test compounds). The cells in the conditioned medium have been incubated for 24 hours at 37°C and 5% CO2. On termination of incubation, the cells have been washed twice with PBS and then detached using a Trypsin-EDTA solution. After washing twice with PBS, the detached cells have been resuspended in the same solution. A small aliquot has been removed from the suspension for the purpose of conducting the MTT cell viability test, while the remainder has been used to extract the cell melanin content. The melanin content has been determined by spectrophotometric measurements at 405 nm, and calculated by means of a calibration curve obtained using a melanin standard. The optical density value obtained has been normalised for the number of viable cells obtained by means of the MTT test. The percentage inhibition of melanin production has been calculated from the percentage ratio between the value obtained from the cells treated with the extracts, and the value obtained from the control cells, treated with MSH alone. The results obtained from testing the compound at a concentration of 1 mg/ml compared to kojic acid at the same concentration, are reported in table 8 below: TABLE 8
# [2] = UV absorption (sun-screen activity), spectrophotometry 250-400 nm; type: physicochemical
# Excerpt: This example reports the test to determine the UV absorption of the molecule 3,5-dicaffeoyl-4-malonylquinic acid compared to a commercially available molecule widely used as a sun screen (PARSOL MCX).
# The compounds have been examined in an aqueous solution of: • 0.2 M phosphate buffer pH 5.0 • 0.1 M HCl solution at pH 1.0.
# The pH 5.0 buffer has been selected as the condition used most frequently in the preparation of sun screens. The pH 1.0 solution has been examined in order to also observe the stability of the compounds at extreme pH values.
# The analyses have been conducted using a Shimadzu model UV 1601 spectrophotometer, analysing the spectrum from 250 nm to 400 nm in order to ascertain the absorption of UVA and UVB.
# The results report the absorption values at maximum wavelength (λ Max) and at 330 nm, this being the wavelength most frequently used for quantitative measurements for the products in question.
# The values are expressed in: • specific extinction, corresponding to the extinction at the given λ for a solution at a concentration of 1.0 µg/mL. • Epsilon = the molar absorption, calculated using the formula Epsilon = A/C*L [formula] where A is the absorption value in mAU, C is the concentration of the solution in moles and L is the path length of the solutions in cm (always 1 cm).
# [3] = system: Malassezia furfur DSMZ4167; assay: Multiple dilution antimicrobial assay, CFU count in culture-broth; type: cell-based; conditions: for T7d: sample at 7 days, 30°C
# Procedure: (§1) With the aim of identifying any potential antimicrobial activity in the compound 3,5-dicaffeoyl-4-malonylquinic acid, microbiological assays, generally known as multiple dilution assays, have been prepared. The results obtained from said assays have shown the antimicrobial activity of the compound against the following strains: • Staphylococcus aureus ATCC6538 • Malassezia furfur DSMZ4167
# (§2) The compound has been tested at concentrations of 5 mg/ml, 2 mg/ml and 1 mg/ml.
# (§3) The microbial strains used for testing have been inoculated into culture-broth (in Tryptone soy broth medium, for Malassezia furfur the culture medium has been supplemented with 2 ml/100 ml of olive oil) containing the test compound at the concentrations described above. In parallel with these tests, culture broths containing the microbial strain alone have been prepared (controls). The culture-broths have been incubated at 30°C for a period of 7 days. Samples of the various culture-broths have been taken at 0 and 7 days, with the aim of counting the number of CFU/ml in relation to the various microbial strains, by plating the cultures on solid medium. A certain number of serial dilutions have been prepared for each sample in order to determine the microbial load of each culture-broth. Each dilution has been assayed in triplicate on solid medium. Then number of CFUs reported in the table is the mean of the counts performed on the triplicate assays. Table 4: the effect of 3,5-dicaffeoyl-4-malonylquinic acid on the growth of Staphylococcus aureus ATCC 6538
# [4] = system: Staphylococcus aureus ATCC6538; assay: as above; type: cell-based
# Procedure: as §1, §2, §3
# [5] = system: DNBS induced colitis model; assay: DNBS induced colitis model in rats (anti-inflammatory activity); type: in vivo, Sprague-Dawley rats; conditions: four days after DNBS
# Excerpt: Evaluation of the anti- inflammatory activity of 3, 5-dicaffeoyl-4-malonylquinic acid has been determined on an in vivo induced colitis model. Colitis has been induced in rats using a colon inflammation model, stimulated by DNBS ([…] acid). After 4 days of induction of inflammation, the following parameters have been evaluated: determination of colon damage by means of morphological and histological analysis; determination of myeloperoxidase activity and determination of body weight. The animals used have been subdivided into four experimental groups (10 Sprague-Dawley rats weighing 200-250 g in each group) : • one control group, to which only carrier has been administered (CTR); • one group, to which DNBS plus carrier has been administered (DNBS); • one group, to which DNBS and 3,5-dicaffeoyl-4-malonylquinic acid has been administered: the compound has been administered orally at a concentration of 2 mg/kg for 4 consecutive days following the administration of DNBS; • one group, to which DNBS and 3,5-dicaffeoyl-4-malonylquinic acid has been administered: the compound has been administered orally at a concentration of 0.2 mg/kg for 4 consecutive days following the administration of DNBS.
# Four days after the administration of DNBS, the following investigations have been conducted: • evaluation of colon damage by means of morphological and histological analysis (a score is assigned on the basis of the damage observed); • evaluation of myeloperoxidase activity and • determination of body weight.
# [6] = Antioxidant activity by the DPPH method; type: biochemical
# Excerpt: The antioxidant activity of the compound 3,5-dicaffeoyl-4-malonylquinic acid compared to known molecules such as ascorbic acid and rutin, has been determined by means of the DPPH method, according to the instructions reported in J. Buenger et al.; International Journal of Cosmetic Science, 2006, 28: 135-146.
# [7] = system: metalloproteinases (MMP); assay: Metalloproteinase inhibition, 3D model with type-1 collagen gel and BALB 3T3 fibroblasts (hydroxyproline content); type: cell-based; conditions: 48 hours; at higher concentrations collagen increases only through reduced cell number
# Excerpt: Metalloproteinase inhibitory activity has been evaluated by preparation of an in vitro assay known as the "3D model" envisaging the use of a type-1 collagen gel and BALB 3T3 fibroblast cells. In this assay model, fibroblasts acquire the property of secreting metalloproteinases (MMP), such as collagenase, gelatinase, elastase etc. through modulation by cytokines or other inflammatory mediators (Lim H., Kim HP, Planta Medica, 2007, 12:1267-1274). Balb 3T3 cells (4*10^6 cells/ms) are inoculated in a culture medium (DMEM + 10% FBS) containing a type 1 collagen 3D gel supplemented with increasing concentrations of the test compound. After incubation for 48 hours at 37°C in 5% CO2, the collagen content is measured by means of an indirect method (hydroxyproline content); in parallel, the effect of treatment on cell viability, or on the growth inhibitory effect, is also assessed. The result is expressed as the %age of hydroxyproline present in the 3D gel, compared to the control, or untreated, culture (NB: the collagen content in the absence of cells is reported as positive control). From the results obtained, it is evident that treatment with 3,5 dicaffeoyl-4-malonylquinic acid is effective up to a concentration of 400 µg/ml. For higher concentrations, the collagen content increases purely as a result of the reduced number of cells.
# [8] = system: type-2 HSV virus; assay: Anti-HSV2 antiviral activity in Vero cell model (XTT read-out); type: cell-based, type-2 Herpes simplex virus (HSV) strain 333; conditions: at a concentration of 200 µg/ml; compared to positive control (infected, no test substance); MOI 0.1; 72 hours
# Procedure: The antiviral activity of 3,5-dicaffeoyl-4-malonylquinic acid towards type-2 HSV virus has been assayed using a Vero cell model. The assay has been conducted using acyclovir as a comparator.
# Vero cells have been seeded into 96 well plates at a concentration of 5x10^4 cells/well. After 4 hours incubation at 37°C in 5% CO2, the cells have been infected with strain 333 of the type-2 Herpes simplex virus (HSV) at a multiplicity of infection (MOI) of 0.1 infective viral particles/cell. Various concentrations of 3,5-dicaffeoyl-4-malonylquinic acid (CA1) have been added in triplicate to the cell monolayers. Some wells have been infected in the absence of test compound (POSITIVE CONTROL), others have not been infected and have not been treated with the test compound (NEGATIVE CONTROL), others still have been treated with various concentrations of acyclovir (ACYC), representing the comparator substance. The infected cells have then been incubated in medium plus 2% FBS for 72 hours. On completion of said incubation period, the medium has been removed from each well by aspiration. Following washing in PBS and aspiration, 50 µl of a solution consisting of […] and 1 mg/ml XTT has been added to each well. […] The optical density has been measured using an ELISA plate reader set at a wavelength of 450 nm and 630 nm.
# [9] = pH 1.0, second line, printed beside 326 nm (330 nm line empty)
# [10] = pH 5.0 (0.2 M phosphate buffer), λ Max line
# [11] = pH 5.0, second line, printed beside 325 nm (330 nm line empty)
# [12] = DNBS + 0.2 mg/kg orally for 4 consecutive days
# [13] = DNBS + 2 mg/kg orally for 4 consecutive days
compound,measurement,setting,value
"O=c1cc(CO)occ1O [Kojic acid, reference compound]",inhibition at 1000 µg/mL,"[1]; Mus musculus, B16-F1, melanin production",70%
same,% inhibition vs AK,[1],100%
"O=C(O)CC(=O)OC1C(OC(=O)/C=C/c2ccc(O)c(O)c2)CC(O)(C(=O)O)CC1OC(=O)/C=C/c1ccc(O)c(O)c1 (stereo not shown) [3,5-dicaffeoyl-4-malonylquinic acid]",Epsilon,"[2]; pH 1.0 (0.1 M HCl), λ Max line",28.539
same,Spec. abs. (1 µg/ml),"[2]; pH 1.0 (0.1 M HCl), λ Max line",47.9 mAU
same,Epsilon,[2]; [9],28.138
same,Spec. abs. (1 µg/ml),[2]; [9],47.2 mAU
same,Epsilon,[2]; [10],30.602
same,Spec. abs. (1 µg/ml),[2]; [10],51.3 mAU
same,Epsilon,[2]; [11],29.972
same,Spec. abs. (1 µg/ml),[2]; [11],50.3 mAU
same,T7d,[3]; 2 mg/ml,<100 CFU/ml
same,T7d,[3]; 5mg/ml,<100 CFU/ml
same,antimicrobial activity,[3]; at a concentration of 2 mg/ml,exerts antimicrobial activity
same,T7d,"[4]; 5mg/ml, sample at 7 days, 30°C",<100 CFU/ml
same,antimicrobial activity,[4]; at a concentration of 5 mg/ml,exerts antimicrobial activity
same,Histological score,[5]; [12],1.60
same,Myeloperoxidase activity,[5]; [12],513.00 U/g fresh weight
same,Histological score,[5]; [13],1.55
same,Myeloperoxidase activity,[5]; [13],486.90 U/g fresh weight
same,IC50,[6],3760 nM
same,"concentration up to which treatment is effective (collagen content, hydroxyproline)",[7],≤ 400 µg/mL
same,% inhibition,[1]; melanin production,33.8%
same,% inhibition vs AK,[1],48%
same,antiviral activity,[8],good antiviral activity
"O=C1O[C@H]([C@@H](O)CO)C(O)=C1O [Ascorbic acid, reference compound]",IC50,[6],1000 nM
